Here are results for 88 compounds from a melting point compilation (Tetko et al.; mined from patent text by program, amines drawn as free bases though some values may be those of a salt).

By melting point is commonly meant the temperature, or range, at which the solid turns liquid.

The compound `COc1ccc(-c2cc(SC(F)(F)F)[nH]c2-c2ccc(OC)cc2)cc1` yielded a melting point of 114 to 115 °C.
`CCCCc1nc(CCc2ccccc2)nn1Cc1ccc(-c2ccccc2-n2cnnn2)cc1` registered a melting point of 156 to 157 °C.
Under `CC(C)(C)c1cc(C(c2cccc([N+](=O)[O-])c2)N2CCCCC2)cc(C(C)(C)C)c1O` (stereo not drawn) stands 157 °C; under `CN1CCC(=C2c3ccccc3Sc3ccc(SC(F)(F)F)cc32)CC1`, 104 to 106 °C; under `O=C1c2c(ccc(F)c2Cl)-n2cnc(-c3cccc(Cl)c3)c2[C@@H]2CCCN12`, 238 to 239 °C.
`CCc1c(C(=O)c2cc(C)cc(C)c2)n(C/C=C/COC)c(=O)[nH]c1=O` gave a melting point of 142 to 143 °C.
Turning to `N#CCC(O)(c1ccc(-c2ccccc2)cc1)c1ccc(-c2ccccc2)cc1`, the melting point fell in the range of 168 to 170 °C.
As to `Nc1nc2ccc3cc(Br)c([N+](=O)[O-])cc3c2c(=O)[nH]1`, the melting point is above 250 °C.
As to `COc1ccc(C(=O)c2c(Cc3ccccc3)sc3cc(OC)ccc23)cc1`, the melting point fell in the range of 110 to 112 °C.
In the case of `Cc1c(C(=O)O)cccc1S(=O)(=O)CCO`, the melting point lay within 160 to 165 °C.
With `COc1ccc(-n2nc(CC(C)(C)C(=O)O)cc2-c2ccc(Cl)cc2)cc1`, the melting point fell in the range of 172 to 174 °C.
Take `Nc1nc(-c2cc(Cl)ccc2Cl)nc(N2CC(O)CC2C(=O)O)n1` (stereo not drawn): the melting point fell in the range of 138 to 145 °C.
Compound `CO[C@@H](Cc1ccc(OCCc2nc(-c3ccc(C(F)(F)F)cc3)oc2C)c2ccsc12)C(=O)O` returned a melting point of 173 to 175 °C.
On to `C=CCOC(=O)c1cccc(NC(=O)NCNC(=O)c2ccccc2C(=O)c2ccccc2)c1`, for which the melting point was in the range of 68 to 71 °C.
In turn, `CC(=O)NCCn1c(O)nc2ccc(Cl)nc21` returned a melting point of 200 to 220 °C.
Under `Cn1cc(C(=O)O)c2cccc(F)c21` stands 225 to 227 °C; under `S=C=NCC1CC(c2ccc(Br)cc2)=NO1` (stereo not drawn), 123 to 125 °C; under `CCc1ccc(Nc2c(-c3nnc(NCCO)o3)ccc(F)c2F)c(F)c1`, 100 to 103 °C.
The value for `CCCc1ccc(S(=O)(=O)Nc2ccc3ncccc3c2)cc1` was 180 to 181 °C; that for `COc1ccc2c(c1)Sc1c(cc(OC)c(OC(C)=O)c1Br)N2` was 201 to 203 °C; that for `Cc1cc(-c2ccc(C(F)(F)F)cn2)nc(-c2cccc(-c3cccc(S(N)(=O)=O)c3)n2)n1` was 246 to 252 °C.
Under `OCc1cccc(-n2cccc2)c1` stands 64 to 67 °C; under `COc1ccc(-c2ccc(CC(=O)O)cc2F)cc1`, 140 to 142 °C; under `Cn1ncc2c1-c1c(Oc3ccccc3)sc(C(=O)O)c1CC2`, 259 to 261 °C.
As to `CCCOC1C(O)C(CO)OC1n1cnc2c(NC(=O)C(C)C)nc(NC(=O)C(C)C)nc21` (stereo not drawn), the melting point was in the range of 140 to 142 °C.
The compound `Cn1cc(C2CCN(CCn3cnc4ccccc4c3=O)CC2)c2ccccc21` returned a melting point of 78 °C.
The value for `CCN=C(N)Nc1cnn(C(C)CCC(=N)NNC(C)=O)n1` (stereo not drawn) was 136 to 138 °C; that for `O=CC1=C(c2ccc3sccc3c2)N2CCN=C2S1` was 146 °C.
Turning to `N#CC1=C(C#N)Sc2nc3cc(C(F)(F)F)ccc3nc2S1`, the melting point is 197 to 199 °C.
Consider `Cc1cc(C(C)(C)C)c(O[Si](C)(C)N=C=S)c(C(C)(C)C)c1`, for which the melting point fell in the range of 83 to 84 °C.
`COc1ccc(C(=O)Nc2ccc(C(=O)c3ccccc3)cc2)cc1`: the melting point was in the range of 171 to 174 °C.
`COc1cc2c(cc1Br)C=C(C)N(C(=O)C1CC1)N=C2c1ccc(N)cc1`: the melting point lay within 224 to 226 °C.
`CCCCNC(=O)NC(Cc1ccccc1)C(=O)Nc1c(F)cc(F)cc1F` (stereo not drawn) displayed a melting point of 217 to 218 °C.
As to `CCOC(=O)c1ccc(C#CCc2ccc3c(c2)C(C)(C)CCC3(C)C)cc1`, the melting point was in the range of 59 to 60 °C.
Under `NC(=O)c1c(CN2CCC(c3ccccc3)(c3ccccc3)CC2)ncn1Cc1ccc(Cl)cc1` stands 227 to 228 °C; under `O=C(O)c1ccc2c(c1)S(=O)(=O)NCN2C1CC1`, 263 to 265 °C.
The compound `O=c1n(CCC#Cc2cccc(CF)n2)nc2ccccn12` showed a melting point of 106 to 107 °C.
The compound `Nc1ccc2oc3c(c2c1)CCCCCC3` displayed a melting point of 97 to 98 °C.
`COC(=O)c1ccc(C=Cc2ccc(-c3cc4cc(Cl)ccc4o3)cc2)cc1` came in with a melting point of 264 to 266 °C.
In the case of `CN1CCC(N2CC=CC3=C2C(O)c2ccc(Cl)cc2SC3)CC1` (stereo not drawn), the melting point lay in the range of 158 to 160 °C.
The value for `Cc1oc(-c2ccccc2)nc1COc1ccc(OCc2ncccc2CC#N)cc1` was 134 to 135 °C; that for `Cc1ccc(-c2ccc(CBr)cc2)cc1` was 100 to 102 °C.
`Cc1cc(C2=NN(C(N)=S)[C@H](C)Cc3cc4c(cc32)OCO4)ccc1[N+](=O)[O-]` registered a melting point of 123 to 125 °C.
In turn, `O=C(Nc1ccc2nc(CN3CCCCC3)ccc2c1)c1ccc(-c2ccccc2)cc1` gave a melting point of 186 to 188 °C.
The value for `CN1C(=O)CC=C2c3ccc(Cl)cc3CCC21` (stereo not drawn) was 99 °C; that for `COc1ccc(-c2ccc(C(=O)N3Cc4cccn4Cc4ccccc43)cc2)cc1` was 187 to 189 °C; that for `CCCCCCCCCCCCCCCCCCN(C)S(=O)(=O)c1ccc(Cl)c([N+](=O)[O-])c1` was 86 to 87 °C.
In turn, `CS(=O)c1nnc(Sc2cc(C(C)(C)C)c(O)c(C(C)(C)C)c2)s1` (stereo not drawn) showed a melting point of 162 to 164 °C.
Regarding `CC(=O)c1cc(-c2ccncc2)sc1N1CCN(C)CC1`, the melting point is 115 to 117 °C.
The value for `O=C(O)CCc1cc2cc(F)c(Cl)cc2n1S(=O)(=O)c1ccccc1` was 199 to 204 °C; that for `O=C(c1ccccc1)c1ccc([N+](=O)[O-])c(CO)c1` was 71.3 °C.
On to `COc1ccc(-c2cccc(C(=O)NCCC#N)c2)c2cc(Cc3cccc(C(F)(F)F)c3)oc12`, for which the melting point was 126 to 127 °C.
The compound `C=C1CC(C)(COc2ccc3ccc(=O)oc3c2)OC1=O` (stereo not drawn) came in with a melting point of 123 to 124 °C.
On to `COC1=C(OC)C(=O)C(CCCCCCCCCCCOC(C)=O)=C(C)C1=O`, for which the melting point was 41 °C.
`CC(=O)OC1CC2=CCC3C4CCC(C(C)CO)C4(C)CCC3C2(C)C(O)C1` (stereo not drawn) displayed a melting point of 121 °C.
Under `CC(=O)NCC1CN(C(c2ccccc2)c2ccccc2)C1` stands 117 to 119 °C; under `CN1CCC(OC2c3ccccc3CCn3cc(I)nc32)CC1` (stereo not drawn), 126 °C; under `CCOP(=O)(CC(=O)NNc1nc2ccc(C(F)(F)F)cc2n(O)c1=O)OCC`, 193 to 196 °C.
`Cc1onc(O)c1-c1ccccc1[N+](=O)[O-]`: the melting point was 197 °C.
`CCCCCS(=O)(=O)NC(=O)CCc1ccc(OCCOC)cc1OC1CCCCC1` had a melting point of 64.1 to 65.4 °C.
`CC(C)(S)CN1CCN(Cc2ccc(O)cc2)CC1` registered a melting point of 81 °C.
`CCOC(=O)NC(=O)C(C#N)=CNc1cccc(F)c1` showed a melting point of 170 to 171 °C.
In turn, `O=C(O)[C@H](Cc1ccccc1)NS(=O)(=O)c1ccc(N2CCN(c3ccccc3)CC2)cc1` displayed a melting point of 192 to 193 °C.
The value for `Cc1nc(NCc2ccccn2)[nH]c(=O)c1CCO` was 185 °C.
As for `O=C(CCSCCOCCSCCC(=O)Nc1ccc(Nc2ccccc2)cc1)Nc1ccc(Nc2ccccc2)cc1`, the melting point fell in the range of 154 to 156 °C.
Under `FC(F)(F)c1[nH]c(-c2ccc(Cl)cc2)c(C(F)(F)F)c1Br` stands 71 to 75 °C.
In the case of `Cc1cc(SC(C)C)c(NC(=O)CN2CCN(CCSc3nc4ccccc4[nH]3)CC2)c(SC(C)C)n1`, the melting point was in the range of 186 to 188 °C.
`CCc1cc(N(C)Cc2ccc3oc(-c4ccccc4C#N)cc3c2)n2nccc2n1` showed a melting point of 143 °C.
`COCN1C(C)=C(C(=O)OCOC(=O)C(C)(C)C)C(c2cccc([N+](=O)[O-])c2)C(C(=O)OCOC(=O)C(C)(C)C)=C1C` came in with a melting point of 73 to 74 °C.
In turn, `CN(c1ccccc1)[C@@H]1C=Cc2ccccc2[C@H]1O` came in with a melting point of 127 to 129 °C.
Consider `O=C(CBr)c1ccc(S(=O)(=O)Cl)cc1`, for which the melting point was 111 °C.
Compound `ONC1CCn2c1cc1ccccc12` (stereo not drawn) displayed a melting point of 159 to 161 °C.
`CCOC(=O)Cc1ccc(OCc2ccc3c(c2)OCO3)cc1` displayed a melting point of 49 to 52 °C.
Under `Cc1ccc(-c2cn3cc([N+](=O)[O-])ccc3n2)cc1` stands 205 to 206 °C; under `CCC(CC)CNC(=O)c1ccc2cccc(Cc3ccc(C(=O)O)cc3OC)c2c1`, 198 to 199 °C.
As to `CC(CN1CCCC1)N1c2ccccc2Sc2ccc(C(=O)NCC3CCCC3)cc21` (racemic), the melting point was 124 °C.
`O=C(c1ccc(F)cc1)c1cccnc1C(=O)O` yielded a melting point of 152 to 153 °C.
The compound `CC(=O)Nc1ccc(NCC(=O)C23CC4CC(CC(C4)C2)C3)cc1` displayed a melting point of 156 to 158 °C.
The value for `COc1ccc(C(=O)C(=O)c2cccnc2)cc1` was 70 to 72 °C; that for `O=C1N(c2cc(Cl)cc(Cl)c2)C(=O)C2(Cc3ccc(Br)cc3)C[C@@H](c3ccccc3)CN12` (stereo partly drawn) was 124 °C; that for `CCc1cccc(C)c1NC(=O)C(C)N` (stereo not drawn) was 68.5 to 70 °C.
The value for `CCOCc1nc2c(N)nc3ccccc3c2n1CCC(N)=O` was above 250 °C; that for `CS(=O)(=O)Nc1ccc([N+](=O)[O-])cc1OC1CCCCC1` was 136 to 137 °C; that for `COC1=C(OC)C(=O)C(CCCCCCCCCCCCCCCCCCCCO)=C(C)C1=O` was 85 °C.
With `CCN1C(=O)C(C)N(c2ccc(Oc3ccccc3)cc2)C1=S` (stereo not drawn), the melting point came out at 102 °C.
In the case of `CC1CCC2CC(=O)N(Cc3ccccc3)C3OC4(C)CCC1C23OO4` (single isomer, unassigned; (-)), the melting point lay in the range of 177 to 179 °C.
The compound `COc1ccc(NC(C)=O)cc1OCCCN1CCC(c2nsc3cc(F)ccc23)CC1` gave a melting point of 109 to 111 °C.
`COc1cn(-c2cc(-n3cccn3)ccc2F)nc(-c2ccnn2-c2ccccc2)c1=O` displayed a melting point of 186 to 187 °C.
